Data from ChEMBL document CHEMBL5523739, “NN1213 - A Potent, Long-Acting, and Selective Analog of Human Amylin” (J Med Chem, 2024).
In brackets after ≈: the same amount, converted by molar mass. Bridge positions count the residues as written; N and C are the ends. Peptide text beside a SMILES is read from it.

Key:
[1] = target: T1, Amylin receptor AMY3; CALCR/RAMP3 (Homo sapiens, UniProt O60896+P30988); experiment: Agonist activity at human AMY3R complex of CTR/RAMP3 expressed in Baby hamster kidney cells incubated for 3 hrs followed by medium replacement without compound measured after 30 mins by luciferase reporter assay; format: functional, cell-based, Baby hamster kidney cell
T1 sequence (P30988 whole entry): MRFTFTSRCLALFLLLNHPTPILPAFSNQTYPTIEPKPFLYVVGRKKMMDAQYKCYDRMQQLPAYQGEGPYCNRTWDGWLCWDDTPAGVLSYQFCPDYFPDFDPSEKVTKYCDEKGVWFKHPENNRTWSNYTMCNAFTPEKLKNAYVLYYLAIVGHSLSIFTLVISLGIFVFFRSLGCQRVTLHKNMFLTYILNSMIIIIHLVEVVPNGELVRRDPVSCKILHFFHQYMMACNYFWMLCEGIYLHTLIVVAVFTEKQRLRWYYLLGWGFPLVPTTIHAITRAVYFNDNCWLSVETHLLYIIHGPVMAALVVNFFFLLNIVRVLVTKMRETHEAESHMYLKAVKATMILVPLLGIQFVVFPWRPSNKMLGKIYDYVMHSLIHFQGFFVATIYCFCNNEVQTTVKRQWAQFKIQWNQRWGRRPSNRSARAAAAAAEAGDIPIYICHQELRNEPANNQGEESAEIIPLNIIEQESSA
T1 sequence (O60896 whole entry): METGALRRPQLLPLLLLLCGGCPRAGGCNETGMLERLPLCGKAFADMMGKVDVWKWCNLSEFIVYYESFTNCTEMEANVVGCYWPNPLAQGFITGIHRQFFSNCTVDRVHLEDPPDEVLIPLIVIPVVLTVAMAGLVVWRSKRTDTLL

Calcitonin receptor [2] = target: T2, Calcitonin receptor (Homo sapiens, UniProt P30988); experiment: Agonist activity at human CTR expressed in Baby hamster kidney cells incubated for 3 hrs followed by medium replacement without compound measured after 30 mins by luciferase reporter assay; format: functional, cell-based, Baby hamster kidney cell
T2 sequence (P30988 whole entry): T1 sequence (P30988 whole entry)

Homo sapiens = species: Homo sapiens; experiment: Selectivity ratio of EC50 for human CTR expressed in Baby hamster kidney cells to EC50 for human AMY3R complex of CTR/RAMP3 expressed in Baby hamster kidney cells; format: cell-based
[3] = Solubility of compound at pH 3 incubated overnight by UPLC analysis; format: physicochemical; settings: buffer
[4] = Solubility of compound at pH 4 incubated overnight by UPLC analysis; format: physicochemical; settings: buffer
[5] = Solubility of compound at pH 5 incubated overnight by UPLC analysis; format: physicochemical; settings: buffer
[6] = Solubility of compound at pH 6 incubated overnight by UPLC analysis; format: physicochemical; settings: buffer
[7] = Solubility of compound at pH 6.5 incubated overnight by UPLC analysis; format: physicochemical; settings: buffer
[8] = Solubility of compound at pH 7 incubated overnight by UPLC analysis; format: physicochemical; settings: buffer
[9] = Solubility of compound at pH 7.5 incubated overnight by UPLC analysis; format: physicochemical; settings: buffer
[10] = Solubility of compound at pH 8 incubated overnight by UPLC analysis; format: physicochemical; settings: buffer
[11] = Stability against amyloid fibril formation at pH 7.5 assessed as lag time at 1 uM measured after 45 hrs by ThT assay; format: physicochemical; settings: pH 7.5, 45 h
[12] = Stability against amyloid fibril formation at pH 7.5 assessed as compound recovery at 1 uM measured after 45 hrs by ThT assay; format: physicochemical; settings: pH 7.5, 45 h
Calcitonin receptor [13] = target: T2, Calcitonin receptor; experiment: Displacement of 125I-Calcitonin from human CTR expressed in Baby hamster kidney cell membrane incubated for 120 mins by SPA method; format: cell membranes
[14] = target: T3, Amylin receptor AMY3; CALCR/RAMP3 (Rattus norvegicus, UniProt P32214+Q9JJ73); experiment: Agonist activity at rat AMY3R complex of CTR/RAMP3 expressed in Baby hamster kidney cells incubated for 3 hrs by cAMP assay; format: functional, cell-based, Baby hamster kidney cell
T3 sequence (P32214 whole entry): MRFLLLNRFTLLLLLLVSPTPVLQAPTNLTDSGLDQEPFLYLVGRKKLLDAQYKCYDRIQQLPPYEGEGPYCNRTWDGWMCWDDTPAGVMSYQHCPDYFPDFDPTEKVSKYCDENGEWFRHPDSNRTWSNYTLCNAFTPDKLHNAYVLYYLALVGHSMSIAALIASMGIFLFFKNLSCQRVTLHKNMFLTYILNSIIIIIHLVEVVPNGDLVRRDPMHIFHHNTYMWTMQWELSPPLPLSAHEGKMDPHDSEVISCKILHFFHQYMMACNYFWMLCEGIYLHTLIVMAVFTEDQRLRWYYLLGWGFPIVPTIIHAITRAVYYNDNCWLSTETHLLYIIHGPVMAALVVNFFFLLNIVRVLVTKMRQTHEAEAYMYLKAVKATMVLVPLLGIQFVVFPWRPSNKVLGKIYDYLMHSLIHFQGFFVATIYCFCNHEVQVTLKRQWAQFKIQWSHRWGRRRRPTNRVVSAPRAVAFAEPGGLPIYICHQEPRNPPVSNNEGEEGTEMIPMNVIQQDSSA
T3 sequence (Q9JJ73 whole entry): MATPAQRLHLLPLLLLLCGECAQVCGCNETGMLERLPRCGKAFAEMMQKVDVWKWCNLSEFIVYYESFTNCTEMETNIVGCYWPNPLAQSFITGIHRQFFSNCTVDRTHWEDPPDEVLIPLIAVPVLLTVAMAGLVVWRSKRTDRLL

Calcitonin receptor [15] = target: T4, Calcitonin receptor (Rattus norvegicus, UniProt P32214); experiment: Agonist activity at rat CTR expressed in Baby hamster kidney cells incubated for 3 hrs by cAMP assay; format: functional, cell-based, Baby hamster kidney cell
T4 sequence (P32214 whole entry): T3 sequence (P32214 whole entry)

[16] = target: T1, Amylin receptor AMY3; CALCR/RAMP3; experiment: Displacement of 125I-rat amylin from human AMY3R complex of CTR/RAMP3 expressed in Baby hamster kidney cell membrane incubated for 120 mins by SPA method; format: cell membranes
[17] = target: T3, Amylin receptor AMY3; CALCR/RAMP3; experiment: Displacement of 125I-rat amylin from rat AMY3R complex of CTR/RAMP3 expressed in Baby hamster kidney cell membrane incubated for 120 mins by SPA method; format: cell membranes
Calcitonin receptor [18] = target: T4, Calcitonin receptor; experiment: Displacement of 125I-Calcitonin from rat CTR expressed in Baby hamster kidney cell membrane incubated for 120 mins by SPA method; format: cell membranes
Rattus norvegicus = species: Rattus norvegicus; experiment: Selectivity ratio of EC50 for rat CTR expressed in Baby hamster kidney cells to EC50 for rat AMY3R complex of CTR/RAMP3 expressed in Baby hamster kidney cells; format: cell-based

SMILES	EC50 [1] [nM]	EC50 (Calcitonin receptor [2]) [nM]	Ratio EC50 (Homo sapiens)	solubility [3] [µM]	solubility [4] [µM]	solubility [5] [µM]	solubility [6] [µM]	solubility [7] [µM]	solubility [8] [µM]	solubility [9] [µM]	solubility [10] [µM]	Time [11] [h]	Drug recovery [12] [%]	IC50 (Calcitonin receptor [13]) [nM]	EC50 [14] [nM]	EC50 (Calcitonin receptor [15]) [nM]	IC50 [16] [nM]	IC50 [17] [nM]	IC50 (Calcitonin receptor [18]) [nM]	Ratio EC50 (Rattus norvegicus)
CC(C)C[C@H](NC(=O)[C@H](CCCNC(=N)N)NC(=O)[C@H](CCC(N)=O)NC(=O)[C@@H](NC(=O)[C@H](C)NC(=O)[C@@H]1CSSC[C@H](NC(=O)[C@@H](N)CCCCN)C(=O)N[C@@H](CC(N)=O)C(=O)N[C@@H]([C@@H](C)O)C(=O)N[C@@H](C)C(=O)N[C@@H]([C@@H](C)O)C(=O)N1)[C@@H](C)O)C(=O)N[C@@H](C)C(=O)N[C@@H](CC(=O)O)C(=O)N[C@@H](Cc1ccccc1)C(=O)N[C@@H](CC(C)C)C(=O)N[C@@H](CCCNC(=N)N)C(=O)N[C@@H](Cc1c[nH]cn1)C(=O)N[C@@H](CO)C(=O)N[C@@H](CO)C(=O)N[C@@H](CCC(N)=O)C(=O)N[C@@H](CC(N)=O)C(=O)N[C@@H](Cc1ccccc1)C(=O)NCC(=O)N[C@@H](C)C(=O)N1CCC[C@H]1C(=O)N[C@@H](CC(C)C)C(=O)N[C@@H](CO)C(=O)N[C@@H](CO)C(=O)N[C@H](C(=O)N[C@@H](CC(N)=O)C(=O)N[C@H](C(=O)NCC(=O)N[C@@H](CO)C(=O)N1CCC[C@H]1C(=O)N[C@H](C(=O)N[C@@H](Cc1ccc(O)cc1)C(N)=O)[C@@H](C)O)C(C)C)[C@@H](C)O (H-KCNTATCATQRLADFLRHSSQNFGAPLSSTNVGSPTY-NH2; disulfide 2-7)	1.54	1.37	0.9	≥ 200	≥ 200	≥ 200	≥ 200	75 (≈ 296 µg/mL)	7 (≈ 27.6 µg/mL)	7 (≈ 27.6 µg/mL)	15 (≈ 59.1 µg/mL)	0	0	–	–	–	–	–	–	–
CC[C@H](C)[C@H](NC(=O)[C@H](C)NC(=O)CNC(=O)[C@H](Cc1ccccc1)NC(=O)[C@H](CC(N)=O)NC(=O)[C@@H]1CCCN1C(=O)[C@H](CO)NC(=O)[C@H](CO)NC(=O)[C@H](Cc1c[nH]cn1)NC(=O)[C@H](CCCNC(=N)N)NC(=O)[C@H](CC(C)C)NC(=O)[C@H](Cc1ccccc1)NC(=O)[C@H](CC(=O)O)NC(=O)[C@H](C)NC(=O)[C@H](CC(C)C)NC(=O)[C@H](CCCNC(=N)N)NC(=O)[C@H](CCC(N)=O)NC(=O)[C@@H](NC(=O)[C@H](C)NC(=O)[C@@H]1CSSC[C@H](NC(=O)[C@@H](N)CCCCN)C(=O)N[C@@H](CC(N)=O)C(=O)N[C@@H]([C@@H](C)O)C(=O)N[C@@H](C)C(=O)N[C@@H]([C@@H](C)O)C(=O)N1)[C@@H](C)O)C(=O)N1CCC[C@H]1C(=O)N[C@@H](CO)C(=O)N[C@@H](CO)C(=O)N[C@H](C(=O)N[C@@H](CC(N)=O)C(=O)N[C@H](C(=O)NCC(=O)N[C@@H](CO)C(=O)N[C@@H](CC(=O)O)C(=O)N[C@H](C(=O)N[C@@H](Cc1ccc(O)cc1)C(N)=O)[C@@H](C)O)C(C)C)[C@@H](C)O	0.161	2.48	–	≥ 200	≥ 200	≥ 200	≥ 200	190 (≈ 747 µg/mL)	≥ 200	≥ 200	≥ 200	> 45	100	19.5	0.643	861	0.355	0.217	96.9	–
CC(C)C[C@H](NC(=O)[C@H](CCCNC(=N)N)NC(=O)[C@H](CCC(N)=O)NC(=O)[C@@H](NC(=O)[C@H](C)NC(=O)[C@@H]1CSSC[C@H](NC(=O)[C@@H](N)CCCCN)C(=O)N[C@@H](CC(N)=O)C(=O)N[C@@H]([C@@H](C)O)C(=O)N[C@@H](C)C(=O)N[C@@H]([C@@H](C)O)C(=O)N1)[C@@H](C)O)C(=O)N[C@@H](C)C(=O)N[C@@H](CC(=O)O)C(=O)N[C@@H](Cc1ccccc1)C(=O)N[C@@H](CC(C)C)C(=O)N[C@@H](CCCNC(=N)N)C(=O)N[C@@H](Cc1c[nH]cn1)C(=O)N[C@@H](CO)C(=O)N[C@@H](CO)C(=O)N[C@@H](CCC(N)=O)C(=O)N[C@@H](CC(N)=O)C(=O)N[C@@H](Cc1ccccc1)C(=O)NCC(=O)N[C@@H](C)C(=O)N1CCC[C@H]1C(=O)N[C@@H](CC(C)C)C(=O)N[C@@H](CO)C(=O)N[C@@H](CO)C(=O)N[C@H](C(=O)N1CCC[C@H]1C(=O)N[C@H](C(=O)NCC(=O)N[C@@H](CO)C(=O)N[C@@H](CC(=O)O)C(=O)N[C@H](C(=O)N[C@@H](Cc1ccc(O)cc1)C(N)=O)[C@@H](C)O)C(C)C)[C@@H](C)O (H-KCNTATCATQRLADFLRHSSQNFGAPLSSTPVGSDTY-NH2; disulfide 2-7)	0.18	0.697	3.9	≥ 200	≥ 200	≥ 200	≥ 200	≥ 200	≥ 200	≥ 200	≥ 200	> 45	100	–	0.463	14.3	–	–	–	31
